These results are taken from patent US6150385A, “1,3,4-thiadiazoles useful for the treatment of CMV infections” (Pharmacia & Upjohn Company, priority 1999, dated 2000).

Each structure is given as a SMILES string.

T1 sequence (P08546 whole entry): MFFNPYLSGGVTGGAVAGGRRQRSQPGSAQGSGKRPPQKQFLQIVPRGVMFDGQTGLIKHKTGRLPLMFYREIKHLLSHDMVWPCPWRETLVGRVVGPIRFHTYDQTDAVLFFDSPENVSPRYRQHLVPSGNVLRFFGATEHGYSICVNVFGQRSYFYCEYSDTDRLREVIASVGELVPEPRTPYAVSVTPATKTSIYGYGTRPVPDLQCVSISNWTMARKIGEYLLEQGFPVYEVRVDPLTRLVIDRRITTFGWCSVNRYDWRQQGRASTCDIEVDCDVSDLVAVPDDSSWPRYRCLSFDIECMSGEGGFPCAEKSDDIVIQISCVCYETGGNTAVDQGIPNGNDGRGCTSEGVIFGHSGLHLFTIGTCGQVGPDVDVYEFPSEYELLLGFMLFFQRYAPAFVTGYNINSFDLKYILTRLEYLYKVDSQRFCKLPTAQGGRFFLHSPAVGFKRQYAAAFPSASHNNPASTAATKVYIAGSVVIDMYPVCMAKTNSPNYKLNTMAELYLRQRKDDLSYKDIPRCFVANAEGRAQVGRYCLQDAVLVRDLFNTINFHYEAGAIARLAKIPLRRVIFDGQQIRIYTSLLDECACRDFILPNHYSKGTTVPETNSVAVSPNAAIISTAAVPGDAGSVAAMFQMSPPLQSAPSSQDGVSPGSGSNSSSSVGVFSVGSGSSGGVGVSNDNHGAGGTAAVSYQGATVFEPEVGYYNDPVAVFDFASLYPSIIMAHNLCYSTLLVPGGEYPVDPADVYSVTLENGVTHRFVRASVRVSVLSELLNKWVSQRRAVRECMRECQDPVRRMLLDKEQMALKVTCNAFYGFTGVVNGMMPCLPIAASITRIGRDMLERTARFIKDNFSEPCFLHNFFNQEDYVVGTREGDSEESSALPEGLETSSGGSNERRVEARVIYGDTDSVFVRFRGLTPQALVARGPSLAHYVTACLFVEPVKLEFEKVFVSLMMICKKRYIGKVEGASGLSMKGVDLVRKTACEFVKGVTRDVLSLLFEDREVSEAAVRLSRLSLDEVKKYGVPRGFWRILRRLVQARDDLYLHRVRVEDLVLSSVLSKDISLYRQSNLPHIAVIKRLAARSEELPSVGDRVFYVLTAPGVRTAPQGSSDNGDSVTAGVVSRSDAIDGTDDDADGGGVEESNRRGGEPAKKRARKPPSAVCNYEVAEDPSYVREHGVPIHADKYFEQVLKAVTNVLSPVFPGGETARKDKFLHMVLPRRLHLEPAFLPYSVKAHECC

The experiment concerns the target T1, HCMV polymerase (Human cytomegalovirus, UniProt P08546).
T1 construct: made in house; host or cells: SF-9 insect cells infected with recombinant baculovirus
The experiment is described as follows: HCMV polymerase assay (scintillation proximity assay). In kind it is biochemical. Particulars: percentage of inhibition at 25 μM concentration in CMV polymerase assay. An outline of the steps:
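Values are percent inhibition at 25 μM, measured by scintillation proximity after capture of biotinylated poly(dA)-oligo(dT) (6 nM) extended with 90 nM 3H-dTTP. Recombinant SF-9-derived enzyme reacted 30 min at 25 or 37 °C in HEPES pH 7.5/KCl/MgCl2/BSA buffer, ±2 mM CHAPS, before EDTA termination.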
For orientation: SPA uses beads or plates that emit light when radiolabelled molecules are held near them.
By inhibition is commonly meant the percentage by which the read-out fell short of the control. Read a low inhibition as little suppression. In turn, `CCCCCCCC/C=C/CCCCCCCC(=O)Nc1nnc(NC2CCCc3ccccc32)s1` (stereo not shown) [compound 107, (E)-N-[5-(1,2,3,4-tetrahydro-1-naphthalenylamino)-1,3,4-thiadiazol-2-yl]-9-octadecenamide] yielded an inhibition at 25 µM of 63.8%.

For the compound `CCCCCCCC/C=C/CCCCCCCC(=O)Nc1nnc(NCC2CCCO2)s1` (stereo not shown) [compound 246, (E)-N-{5-[(tetrahydro-2-furanylmethyl)amino]-1,3,4-thiadiazol-2-yl}-9-octadecenamide], testing at 25 µM gave an inhibition of 40.9%.

Take `CCOc1ccc2ccccc2c1C(=O)Nc1nnc(NC2CCc3ccccc32)s1` (stereo not shown) [compound 95, N-[5-(2,3-dihydro-1H-inden-1-ylamino)-1,3,4-thiadiazol-2-yl]-2-ethoxy-1-naphthamide]: testing at 25 µM gave an inhibition of 65.9%.

`CCCCCCCCCCCNc1nnc(NC(=O)c2cccc([N+](=O)[O-])c2)s1` [compound 80, 3-nitro-N-[5-(undecylamino)-1,3,4-thiadiazol-2-yl]benzamide]: the inhibition at 25 µM amounted to 67.9%.

As to `O=C(/C=C/c1ccccc1)Nc1nnc(NCCc2c[nH]cn2)s1` [compound 215, (E)-N-(5-{[2-(1H-imidazol-4-yl)ethyl]amino}-1,3,4-thiadiazol-2-yl)-3-phenyl-2-propenamide], the inhibition at 25 µM is 44.1%.

`CCCCCCCC/C=C/CCCCCCCC(=O)Nc1nnc(NCCC(c2ccccc2)c2ccccc2)s1` [compound 64, (E)-N-{5-[(3,3-diphenylpropyl)amino]-1,3,4-thiadiazol-2-yl}-9-octadecenamide]: at 25 µM the inhibition was 73.6%.

In the case of `CCOC(=O)N1CCC(Nc2nnc(NC(=O)c3c(Cl)cccc3Cl)s2)CC1` [compound 132, ethyl 4-({5-[(2,6-dichlorobenzoyl)amino]-1,3,4-thiadiazol-2-yl}amino)tetrahydro-1(2H)-pyridinecarboxylate], at 25 µM the inhibition was 57%.

As to `CC(C)c1cc(C(C)C)c(C(=O)Nc2nnc(NCc3ccncc3)s2)c(C(C)C)c1` [compound 266, 2,4,6-triisopropyl-N-{5-[(4-pyridinylmethyl)amino]-1,3,4-thiadiazol-2-yl}benzamide], the inhibition at 25 µM came out at 38.8%.

Take `O=C(/C=C/c1ccccc1)Nc1nnc(NCCCNC2CCCCC2)s1` [compound 124, (E)-N-(5-{[3-(cyclohexylamino)propyl]amino}-1,3,4-thiadiazol-2-yl)-3-phenyl-2-propenamide]: 25 µM produced 59.2% inhibition.

For the compound `O=C(Nc1nnc(NCCCNC2CCCCC2)s1)c1ccc(F)cc1F` [compound 160, N-(5-{[3-(cyclohexylamino)propyl]amino}-1,3,4-thiadiazol-2-yl)-2,4-difluorobenzamide], 25 µM produced 52.6% inhibition.

`O=C(Nc1nnc(NCCCN2CCCC2=O)s1)c1ccc([N+](=O)[O-])o1` [compound 296, 5-nitro-N-(5-{[3-(2-oxo-1-pyrrolidinyl)propyl]amino}-1,3,4-thiadiazol-2-yl)-2-furamide] came in with an inhibition at 25 µM of 35.1%.

Compound `COc1ccccc1C(=O)Nc1nnc(NCc2cccc3ccccc23)s1` [compound 334, 2-methoxy-N-{5-[(1-naphthylmethyl)amino]-1,3,4-thiadiazol-2-yl}benzamide] gave an inhibition at 25 µM of 31.8%.

In turn, `CCCCCCCCCCCNc1nnc(NC(=O)c2ccc(C(F)(F)F)cc2)s1` [compound 239, 4-(trifluoromethyl)-N-[5-(undecylamino)-1,3,4-thiadiazol-2-yl]benzamide] gave an inhibition at 25 µM of 41.4%.

In turn, `O=C(Nc1nnc(NCCCCc2ccccc2)s1)c1cc(F)cc(F)c1` [compound 373, 3,5-difluoro-N-{5-[(4-phenylbutyl)amino]-1,3,4-thiadiazol-2-yl}benzamide] showed an inhibition at 25 µM of 28.1%.

Turning to `CCOc1ccc2ccccc2c1C(=O)Nc1nnc(NCC(c2ccccc2)c2ccccc2)s1` [compound 55, N-{5-[(2,2-diphenylethyl)amino]-1,3,4-thiadiazol-2-yl}-2-ethoxy-1-naphthamide], testing at 25 µM gave an inhibition of 77.6%.

On to `O=C(Nc1nnc(NCc2cccc3ccccc23)s1)c1c(Cl)cccc1Cl` [compound 101, 2,6-dichloro-N-{5-[(1-naphthylmethyl)amino]-1,3,4-thiadiazol-2-yl}benzamide], for which the inhibition at 25 µM turned out to be 65%.

As for `CCCCCCCC/C=C/CCCCCCCC(=O)Nc1nnc(NCc2ccccn2)s1` [compound 171, (E)-N-{5-[(2-pyridinylmethyl)amino]-1,3,4-thiadiazol-2-yl}-9-octadecenamide], the inhibition at 25 µM turned out to be 49.9%.

`O=C(Nc1nnc(NCCc2c[nH]c3ccccc23)s1)c1ccc2c(c1)C(=O)OC2=O` [compound 10, N-(5-{[2-(1H-indol-3-yl)ethyl]amino}-1,3,4-thiadiazol-2-yl)-1,3-dioxo-1,3-dihydro-2-benzofuran-5-carboxamide] had an inhibition at 25 µM of 99.7%.

Compound `COc1ccccc1C(=O)Nc1nnc(NCCNc2ccccc2)s1` [compound 394, N-{5-[(2-anilinoethyl)amino]-1,3,4-thiadiazol-2-yl}-2-methoxybenzamide] yielded an inhibition at 25 µM of 26%.

As for `COc1ccc(CNc2nnc(NC(=O)c3ccc4c(c3)C(=O)OC4=O)s2)cc1OC` [compound 16, N-{5-[(3,4-dimethoxybenzyl)amino]-1,3,4-thiadiazol-2-yl}-1,3-dioxo-1,3-dihydro-2-benzofuran-5-carboxamide], the inhibition at 25 µM is 98.7%.

Regarding `CCOc1ccc2ccccc2c1C(=O)Nc1nnc(NCC(C)(C)C)s1` [compound 233, 2-ethoxy-N-[5-(neopentylamino)-1,3,4-thiadiazol-2-yl]-1-naphthamide], at 25 µM the inhibition was 42.1%.

`NS(=O)(=O)c1ccc(CCNc2nnc(NC(=O)CCCCCl)s2)cc1` [compound 390, N-(5-{[4-(aminosulfonyl)phenethyl]amino}-1,3,4-thiadiazol-2-yl)-5-chloropentanamide] displayed an inhibition at 25 µM of 26.3%.

The compound `CCOc1ccc2ccccc2c1C(=O)Nc1nnc(NC2CCCc3ccccc32)s1` (stereo not shown) [compound 93, 2-ethoxy-N-[5-(1,2,3,4-tetrahydro-1-naphthaienylamino)-1,3,4-thiadiazol-2-yl]-1-naphthamide] came in with an inhibition at 25 µM of 66%.

`CC(C)c1cc(C(C)C)c(C(=O)Nc2nnc(NCc3ccc(F)cc3)s2)c(C(C)C)c1` [compound 401, N-{5-[(4-fluorobenzyl)amino]-1,3,4-thiadiazol-2-yl}-2,4,6-triisopropylbenzamide] came in with an inhibition at 25 µM of 25.5%.

`O=C(Nc1nnc(NCCc2cccs2)s1)c1cc2ccccc2s1` [compound 234, N-(5-{[2-(2-thienyl)ethyl]amino}-1,3,4-thiadiazol-2-yl)-1-benzothiophene-2-carboxamide] gave an inhibition at 25 µM of 42%.

Consider `NS(=O)(=O)c1ccc(CCNc2nnc(NC(=O)/C=C/c3ccccc3Cl)s2)cc1` [compound 125, (E)-N-(5-{[4-(aminosulfonyl)phenethyl]amino}-1,3,4-thiadizol-2-yl)-3-(2-chlorophenyl)-2-propenamide], for which at 25 µM the inhibition was 58.9%.

As to `O=C(Nc1nnc(NC2CCCc3ccccc32)s1)c1cc(F)cc(F)c1` (stereo not shown) [compound 468, 3,5-difluoro-N-[5-(1,2,3,4-tetrahydro-1-naphthalenylamino)-1,3,4-thiadiazol-2-yl]benzamide], at 25 µM the inhibition was 20.1%.

In turn, `O=C(Nc1nnc(NCCc2c[nH]c3ccccc23)s1)c1c(Cl)cccc1Cl` [compound 255, 2,6-dichloro-N-(5-{[2-(1H-indol-3-yl)ethyl]amino}-1,3,4-thiadiazol-2-yl)benzamide] yielded an inhibition at 25 µM of 39.9%.

Turning to `O=C(/C=C/c1ccccc1Cl)Nc1nnc(NCc2ccccn2)s1` [compound 161, (E)-3-(2-chlorophenyl)-N-{5-[(2-pyridinylmethyl)amino]-1,3,4-thiadiazol-2-yl}-2-propenamide], at 25 µM the inhibition was 51.9%.

`CCOc1ccc2ccccc2c1C(=O)Nc1nnc(NCCc2ccc(S(N)(=O)=O)cc2)s1` [compound 328, N-(5-{[4-(aminosulfonyl)phenethyl]amino}-1,3,4-thiadiazol-2-yl)-2-ethoxy-1-naphthamide] gave an inhibition at 25 µM of 32.4%.

As for `O=C(Nc1nnc(NCc2cccc3ccccc23)s1)c1cc(F)cc(F)c1` [compound 362, 3,5-difluoro-N-{5-[(1-naphthylmethyl)amino]-1,3,4-thiadiazol-2-yl}benzamide], the inhibition at 25 µM turned out to be 28.8%.

`N#Cc1ccc(C(=O)Nc2nnc(NCCc3ccccc3)s2)cc1` [compound 345, 4-cyano-N-[5-(phenethylamino)-1,3,4-thiadiazol-2-yl]benzamide] registered an inhibition at 25 µM of 30.9%.

Regarding `COc1ccccc1C(=O)Nc1nnc(NCCC(c2ccccc2)c2ccccc2)s1` [compound 383, N-{5-[(3,3-diphenylpropyl)amino]-1,3,4-thiadiazol-2-yl}-2-methoxybenzamide], at 25 µM the inhibition was 27.3%.

The compound `O=C(Nc1nnc(NCCc2c[nH]c3ccccc23)s1)c1ccc(Cl)c(Cl)c1` [compound 295, 3,4-dichloro-N-(5-{[2-(1H-indol-3-yl)ethyl]amino}-1,3,4-thiadiazol-2-yl)benzamide] had an inhibition at 25 µM of 35.4%.

In the case of `CC1(C)C2CC[C@@H](CNc3nnc(NC(=O)/C=C/c4ccccc4Cl)s3)C1C2` (stereo partly drawn) [compound 320, (E)-3-(2-chlorophenyl)-N-[5-({[(2R)-6,6-dimethylbicyclo[3.1.1]hept-2-yl]methyl}amino)-1,3,4-thiadiazol-2-yl]-2-propenamide], the inhibition at 25 µM is 33.5%.

`O=C(Nc1nnc(NCCc2c[nH]c3ccccc23)s1)c1cccc([N+](=O)[O-])c1` [compound 271, N-(5-{[2-(1H-indol-3-yl)ethyl]amino}-1,3,4-thiadiazol-2-yl)-3-nitrobenzamide] came in with an inhibition at 25 µM of 38.4%.

As for `O=C(Nc1nnc(NCCN2CCOCC2)s1)c1cccc([N+](=O)[O-])c1` [compound 469, N-{5-[(2-morpholinoethyl)amino]-1,3,4-thiadiazol-2-yl}-3-nitrobenzamide], testing at 25 µM gave an inhibition of 20.1%.
